Source: patent US20210253710A1, “DIAGNOSTIC AND THERAPEUTIC METHODS FOR KIDNEY CANCER” (Genentech, Inc., priority 2018, published 2021)
Like-named read-outs stand apart in the source and are kept apart here. Marks after values point to notes of the source that are not given here.

Tests used:
[1] = test system: patients with inoperable, locally advanced, or metastatic RCC; conditions: Rini et al. Lancet 2019, cited from earlier work; for Median OS: clinical cutoff Aug. 13, 2018; for Confirmed INV-assessed ORR / Median INV-assessed PFS: clinical cutoff Sep. 29, 2017
[2] = test system: safety-evaluable patients with locally advanced or metastatic RCC; assay: IMmotion151 safety (adverse events, AESI); type: in vivo; conditions: for Patients with ≥ 1 event: Adrenal insufficiency, All Grades / Patients with ≥ 1 event: Adrenal insufficiency, Grade 3-4 / Patients with ≥ 1 event: Colitis, All Grades / Patients with ≥ 1 event: Colitis, Grade 3-4 / Patients with ≥ 1 event: Hyperthyroidism, All Grades / Patients with ≥ 1 event: Hyperthyroidism, Grade 3-4 / Patients with ≥ 1 event: Hypothyroidism, All Grades / Patients with ≥ 1 event: Hypothyroidism, Grade 3-4 / Patients with ≥ 1 event: Liver function test abnormalities, All Grades / Patients with ≥ 1 event: Liver function test abnormalities, Grade 3-4 / Patients with ≥ 1 event: Pneumonitis, All Grades / Patients with ≥ 1 event: Pneumonitis, Grade 3-4 / Patients with ≥ 1 event: Rash, All Grades / Patients with ≥ 1 event: Rash, Grade 3-4: AESI; for Patients with ≥ 1 event: Any AESI, All Grades / Patients with ≥ 1 event: Any AESI, Grade 3-4: all treatment-emergent AEs
Experimental: Patients in the Atezolizumab+Bevacizumab (“Atezo+Bev”) arm received both atezolizumab and bevacizumab until loss of clinical benefit, unacceptable toxicity or symptomatic deterioration attributed to disease progression, withdrawal of consent, or death, whichever occured first. Atezolizumab was administered at a fixed dose of 1200 milligrams (mg) via intravenous (IV) infusion on Days 1 and 22 of each 42-day cycle. Bevacizumab was be administered at a dose of 15 milligrams per kilogram (mg/kg) via IV infusion on Days 1 and 22 of each 42-day cycle. Patients in the sunitinib arm received sunitinib until loss of clinical benefit, unacceptable toxicity or symptomatic deterioration attributed to disease progression, withdrawal of consent, or death, whichever occured first. Sunitinib was administered at a dose of 50 mg once daily, orally via capsule, on Day 1 through Day 28 of each 42-day cycle.
(§1) IMmotion151 is a multicenter, randomized, open-label, Phase III study evaluating the efficacy and safety of atezolizumab+bevacizumab vs those of sunitinib in patients with previously untreated, inoperable, locally advanced or metastatic RCC (FIG. 1). The co-primary endpoints were (i) investigator (INV)-assessed progression-free survival (PFS) in patients with ≥1% IC expressing PD-L1 (PD-L1+) and (ii) interim overall survival (OS) in the intent-to-treat (ITT) population. Secondary endpoints inclue INV-assessed PFS and OS in patients with sarcomatoid histology and are reported here with INV-assessed objective response rate (ORR), safety, patient-reported outcomes (PROs) of symptoms and function and biomarker evaluation.
Patients were included in this subgroup analysis if their tumor had any component of sarcomatoid histology, referred to in this presentation as “All Sarc,” as reported by the investigator per the local pathology report. P values are for descriptive purposes only. […] The clinical cutoff for PFS, ORR, PRO and safety was Sep. […] The clinical cutoff for OS was Aug.

[3] = test system: patients with inoperable, locally advanced, or metastatic RCC; assay: IMmotion151 Phase III study: efficacy of atezolizumab plus bevacizumab versus sunitinib (ITT and PD-L1+ populations); type: in vivo, human; conditions: investigator-assessed
Description: The IMmotion151 study (ClinicalTrials.gov Identifier NCT02420821) is a multi-center, randomized, open-label study to evaluate the efficacy and safety of atezolizumab plus bevacizumab versus sunitinib in patients with inoperable, locally advanced, or metastatic RCC who have not received prior systemic active or experimental therapy in either the adjuvant or metastatic setting. The co-primary endpoints of the study were PFS in the PD-L1^+ subgroup, and OS in the ITT population. The exploratory endpoints included biomarker characterization in sarcomatoid tumors and MSKCC risk subgroups, as well as validation of gene signatures from the IMmotion150 study and their association with PFS. […]
as §1, with “Secondary endpoints inclue INV-assessed PFS and OS in patients with sarcomatoid histology and are reported here with INV-assessed objective response rate (ORR), safety, patient-reported outcomes (PROs) of symptoms and function and biomarker evaluation.” left out

[4] = test system: patients with metastatic RCC with sarcomatoid histology; assay: IMmotion151 subgroup analysis: efficacy in patients whose tumors had sarcomatoid histology; type: in vivo, human; conditions: for Median OS: clinical cutoff Aug. 13, 2018; for Confirmed INV-assessed ORR / Median INV-assessed PFS: clinical cutoff Sep. 29, 2017
Description: Sarcomatoid renal carcinoma was defined as any histologic type of renal cell carcinoma containing a focus/foci of high-grade malignant spindle cells of any component relative to the entire tumor area. Such a classification required evidence of epithelial differentiation with concurrent areas of renal cell carcinoma or evidence of epithelial differentiation in the spindle cells with immunohistochemical positivity for keratin or epithelial membrane antigen (EMA). Frequent patterns include fibrosarcoma, malignant fibrous histiocytoma, and rhabdomyosarcoma. Focal spindling due to noncohesion of tumor cells was not considered to represent sarcomatoid differentiation. Any spindle component relative to the entire tumor area was sufficient. The degree of sarcomatoid differentiation was recorded as 1) any component, 2) >20% component, or 3) predominant sarcomatoid component.
as §1
Patients were included in this subgroup analysis if their tumor had any component of sarcomatoid histology, referred to in this presentation as “All Sarc,” as reported by the investigator per the local pathology report. P values are for descriptive purposes only. Gene expression analyses of baseline tumor samples were performed as previously described and focused on T-effector and angiogenesis signatures (see, e.g., McDermott et al. Nat. Med. 24:749-757, 2018). The clinical cutoff for PFS, ORR, PRO and safety was Sep. 29, 2017, with a median follow-up of 13 months. The clinical cutoff for OS was Aug. 13, 2018, with a median follow-up of 17 months.

[5] = test system: patients with untreated metastatic renal cell carcinoma; assay: IMmotion151 PFS analysis in biomarker-evaluable subgroups (Angio and Teff gene signatures, MSKCC risk); type: in vivo, human
Experimental: The MSKCC (Motzer) criteria used were as follows. The risk factors included 1) a Karnofsky Performance Status (KPS) score <80; 2) a corrected serum calcium >10 mg/dL; 3) an LDH level >1.5 times the upper limit of normal; 4) a hemoglobin level <the lower limit of normal; 5) a time from nephrectomy to systemic therapy of […] (an individual also was scored as having this risk factor if they were initially assessed with metastatic disease or if they have had no nephrectomy). The risk stratification was as follows: individuals having 3 risk factors belong to the poor risk subgroup; individuals having 1 or 2 risk factors belong to the intermediate risk subgroup; and individuals having 0 risk factors belong to the favorable group. For study purposes, systemic therapy was designated as the date of initial study screening. The formula for corrected calcium was Corrected calcium=serum calcium (mg/dL)+0.8 (4 […] serum albumin (g/dL)).
In the phase II IMmotion150 study, gene signatures were identified based on association with clinical outcome. The T-effector (“Teff”) signature included CD8a, IFNG, PRF1, EOMES, and CD274. The Angiogenesis (“Angio”) signature included VEGFA, KDR, ESM1, PECAM1, CD34, and ANGPTL4. […] In the IMmotion151 study, a pre-specified analysis of association with PFS was performed. Unstratified HR and log-rank test were used for PFS analyses in biomarker-evaluable patients. The IMmotion151 transcriptome map confirmed biological subgroups identified in […], including the angiogenesis, immune and antigen presentation (including the Teff signature), and myeloid inflammation subgroups (FIG. 4).

[6] = patients with >20% sarcomatoid component

Structure (SMILES): CCN(CC)CCNC(=O)c1c(C)[nH]c(/C=C2\C(=O)Nc3ccc(F)cc32)c1C [Sunitinib, N-[2-(Diethylamino)ethyl]-5-[(Z)-(5-fluoro-2-oxo-1,2-dihydro-3H-indol-3-ylidene)methyl]-2,4-dimethyl-1H-pyrrole-3-carboxamide]
- CR ([1]; ITT): 2%
- Ongoing responses ([1]; ITT): 90 n
- Median OS ([1]; ITT): 34.9 mo
- Confirmed INV-assessed ORR ([1]; ITT): 33%
- Median INV-assessed PFS ([1]; ITT): 8.4 mo
- CR ([1]; PD-L1 + ITT): 4%
- Ongoing responses ([1]; PD-L1 + ITT): 34 n
- Median OS ([1]; PD-L1 + ITT): 32.7 mo
- Confirmed INV-assessed ORR ([1]; PD-L1 + ITT): 35%
- Median INV-assessed PFS ([1]; PD-L1 + ITT): 7.7 mo
- Treatment-related AEs ([2]; All Safety Evaluable): 96%
- Treatment-related AEs leading to discontinuation of any treatment component ([2]; All Safety Evaluable): 8%
- Treatment-related AEs leading to discontinuation of treatment regimen ([2]; All Safety Evaluable): 8%
- Treatment-related AEs, Grade 3-4 ([2]; All Safety Evaluable): 54%
- Treatment-related deaths ([2]; All Safety Evaluable): 1^e n
- Patients with ≥ 1 event: Adrenal insufficiency, All Grades ([2]; All Safety Evaluable): 0%
- Patients with ≥ 1 event: Adrenal insufficiency, Grade 3-4 ([2]; All Safety Evaluable): 0%
- Patients with ≥ 1 event: Colitis, All Grades ([2]; All Safety Evaluable): <1%
- Patients with ≥ 1 event: Colitis, Grade 3-4 ([2]; All Safety Evaluable): <1%
- Patients with ≥ 1 event: Hyperthyroidism, All Grades ([2]; All Safety Evaluable): 3%
- Patients with ≥ 1 event: Hyperthyroidism, Grade 3-4 ([2]; All Safety Evaluable): 0%
- Patients with ≥ 1 event: Hypothyroidism, All Grades ([2]; All Safety Evaluable): 26%
- Patients with ≥ 1 event: Hypothyroidism, Grade 3-4 ([2]; All Safety Evaluable): <1%
- Patients with ≥ 1 event: Liver function test abnormalities, All Grades ([2]; All Safety Evaluable): 18%
- Patients with ≥ 1 event: Liver function test abnormalities, Grade 3-4 ([2]; All Safety Evaluable): 4%
- Patients with ≥ 1 event: Pneumonitis, All Grades ([2]; All Safety Evaluable): 0%
- Patients with ≥ 1 event: Pneumonitis, Grade 3-4 ([2]; All Safety Evaluable): 0%
- Patients with ≥ 1 event: Rash, All Grades ([2]; All Safety Evaluable): 15%
- Patients with ≥ 1 event: Rash, Grade 3-4 ([2]; All Safety Evaluable): <1%
- Patients with ≥ 1 event: Any AESI, All Grades ([2]; All Safety Evaluable): 72%
- Patients with ≥ 1 event: Any AESI, Grade 3-4 ([2]; All Safety Evaluable): 17%
- Treatment-related AEs ([2]; Sarc Safety Evaluable): 94%
- Treatment-related AEs leading to discontinuation of any treatment component ([2]; Sarc Safety Evaluable): 3%
- Treatment-related AEs leading to discontinuation of treatment regimen ([2]; Sarc Safety Evaluable): 3%
- Treatment-related AEs, Grade 3-4 ([2]; Sarc Safety Evaluable): 49%
- Treatment-related deaths ([2]; Sarc Safety Evaluable): 0 n
- Patients with ≥ 1 event: Adrenal insufficiency, All Grades ([2]; Sarc Safety Evaluable): 0%
- Patients with ≥ 1 event: Adrenal insufficiency, Grade 3-4 ([2]; Sarc Safety Evaluable): 0%
- Patients with ≥ 1 event: Colitis, All Grades ([2]; Sarc Safety Evaluable): 1%
- Patients with ≥ 1 event: Colitis, Grade 3-4 ([2]; Sarc Safety Evaluable): 0%
- Patients with ≥ 1 event: Hyperthyroidism, All Grades ([2]; Sarc Safety Evaluable): 1%
- Patients with ≥ 1 event: Hyperthyroidism, Grade 3-4 ([2]; Sarc Safety Evaluable): 0%
- Patients with ≥ 1 event: Hypothyroidism, All Grades ([2]; Sarc Safety Evaluable): 16%
- Patients with ≥ 1 event: Hypothyroidism, Grade 3-4 ([2]; Sarc Safety Evaluable): 0%
- Patients with ≥ 1 event: Liver function test abnormalities, All Grades ([2]; Sarc Safety Evaluable): 10%
- Patients with ≥ 1 event: Liver function test abnormalities, Grade 3-4 ([2]; Sarc Safety Evaluable): 3%
- Patients with ≥ 1 event: Pneumonitis, All Grades ([2]; Sarc Safety Evaluable): 0%
- Patients with ≥ 1 event: Pneumonitis, Grade 3-4 ([2]; Sarc Safety Evaluable): 0%
- Patients with ≥ 1 event: Rash, All Grades ([2]; Sarc Safety Evaluable): 14%
- Patients with ≥ 1 event: Rash, Grade 3-4 ([2]; Sarc Safety Evaluable): 0%
- Patients with ≥ 1 event: Any AESI, All Grades ([2]; Sarc Safety Evaluable): 66%
- Patients with ≥ 1 event: Any AESI, Grade 3-4 ([2]; Sarc Safety Evaluable): 11%
- median PFS ([3]; ITT population): 8.4 months
- median PFS ([3]; PD-L1+ patients): 7.7 months
- CR ([4]; All Sarc): 3%
- Ongoing responses ([4]; All Sarc): 3 n
- Median OS ([4]; All Sarc): 15.4 mo
- Confirmed INV-assessed ORR ([4]; All Sarc): 14%
- Median INV-assessed PFS ([4]; All Sarc): 5.3 mo
- CR ([4]; PD-Li + Sarc): 4%
- Ongoing responses ([4]; PD-Li + Sarc): 0 n
- Median OS ([4]; PD-Li + Sarc): 15.0 mo
- Confirmed INV-assessed ORR ([4]; PD-Li + Sarc): 12%
- Median INV-assessed PFS ([4]; PD-Li + Sarc): 5.6 mo
- CR rate [4, 6]: 0%
- ORR [4, 6]: 4%
- overall response rate (ORR) ([4]; patients with sarcomatoid differentiation (Example 1)): 18%
- Teff gene signature and PFS within the treatment arm ([5]; Teff High versus Low within arm, in words): did not differentiate PFS
- PFS in the Angio High subgroup versus the Angio Low subgroup ([5]; within sunitinib arm, in words): improved PFS
- PFS HR (95% CI) for Angiogenesis (High versus Low) ([5]; within treatment arm): 0.59 (0.47, 0.75)
